Results: patent US10681909B2, “Herbicidal triazoles” (FMC Corporation, priority 2014, dated 2020)

Experiments:
crabgrass, large [1] = assay: Test A preemergence; format: in vivo, Digitaria sanguinalis; conditions: 0 to 100 scale (0 no effect, 100 complete control)
Outline: (§1)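 Test chemicals, formulated in a surfactant-containing non-phytotoxic solvent mixture, are applied either as a directed soil spray to newly planted seeds or as a postemergence application to plants at the one- to two-leaf stage (2–10 cm). All plants grow in a loam soil and sand blend.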

morningglory [2] = assay: Test A postemergence; format: in vivo, Ipomoea spp.; conditions: 0 to 100 scale (0 no effect, 100 complete control), approx. 10 d
Outline: as §1

ducksalad [3] = assay: Test B flooded paddy test; format: in vivo, Heteranthera limosa; conditions: 250 g ai/ha, applied to paddy water at 2-leaf stage, visual rating after 13 to 15 d, scale 0 (no effect) to 100 (complete control)
Outline: (§2)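 Pots were flooded to 3 cm above the soil at treatment, and compounds were applied directly into the paddy water. That depth was held throughout. After 13 to 15 d in a greenhouse, plants were rated visually against untreated controls.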

corn [4] = assay: Test A preemergence; format: in vivo, Zea mays; conditions: 0 to 100 scale (0 no effect, 100 complete control)
Outline: as §1

barnyardgrass [5] = assay: Test A preemergence; format: in vivo, Echinochloa crus-galli; conditions: 0 to 100 scale (0 no effect, 100 complete control)
Outline: as §1

barnyardgrass [6] = assay: Test C flooded paddy test; format: in vivo, Echinochloa crus-galli; conditions: Flood, applied to paddy water, rating after 13 to 15 d
Text: (§3) At time of treatment, test pots were flooded to 3 cm above the soil surface, treated by application of test compounds directly to the paddy water, and then maintained at that water depth for the duration of the test. Treated plants and controls were maintained in a greenhouse for 13 to 15 d, after which time all species were compared to controls and visually evaluated. […] A dash (-) response means no test result.

velvetleaf [7] = assay: Test A preemergence; format: in vivo, Abutilon theophrasti; conditions: 0 to 100 scale (0 no effect, 100 complete control)
Outline: as §1

corn [8] = assay: Test A postemergence; format: in vivo, Zea mays; conditions: 0 to 100 scale (0 no effect, 100 complete control), approx. 10 d
Outline: as §1

rice [9] = assay: Test B flooded paddy test; format: in vivo, Oryza sativa; conditions: 250 g ai/ha, applied to paddy water at 2-leaf stage, visual rating after 13 to 15 d, scale 0 (no effect) to 100 (complete control)
Outline: as §2

rice [10] = assay: Test C flooded paddy test; format: in vivo, Oryza sativa; conditions: Flood, applied to paddy water, rating after 13 to 15 d
Text: as §3

pigweed [11] = assay: Test A postemergence; format: in vivo, Amaranthus retroflexus; conditions: 0 to 100 scale (0 no effect, 100 complete control), approx. 10 d
Outline: as §1

morningglory [12] = assay: Test A preemergence; format: in vivo, Ipomoea spp.; conditions: 0 to 100 scale (0 no effect, 100 complete control)
Outline: as §1

foxtail, giant [13] = assay: Test A postemergence; format: in vivo, Setaria faberii; conditions: 0 to 100 scale (0 no effect, 100 complete control), approx. 10 d
Outline: as §1

barnyardgrass [14] = assay: Test A postemergence; format: in vivo, Echinochloa crus-galli; conditions: 0 to 100 scale (0 no effect, 100 complete control), approx. 10 d
Outline: as §1

barnyardgrass [15] = assay: Test B flooded paddy test; format: in vivo, Echinochloa crus-galli; conditions: 250 g ai/ha, applied to paddy water at 2-leaf stage, visual rating after 13 to 15 d, scale 0 (no effect) to 100 (complete control)
Outline: as §2

wheat [16] = assay: Test A preemergence; format: in vivo, Triticum aestivum; conditions: 0 to 100 scale (0 no effect, 100 complete control)
Outline: as §1

ducksalad [17] = assay: Test C flooded paddy test; format: in vivo, Heteranthera limosa; conditions: Flood, applied to paddy water, rating after 13 to 15 d
Text: as §3

velvetleaf [18] = assay: Test A postemergence; format: in vivo, Abutilon theophrasti; conditions: 0 to 100 scale (0 no effect, 100 complete control), approx. 10 d
Outline: as §1

wheat [19] = assay: Test A postemergence; format: in vivo, Triticum aestivum; conditions: 0 to 100 scale (0 no effect, 100 complete control), approx. 10 d
Outline: as §1

foxtail, giant [20] = assay: Test A preemergence; format: in vivo, Setaria faberii; conditions: 0 to 100 scale (0 no effect, 100 complete control)
Outline: as §1

sedge, umbrella [21] = assay: Test C flooded paddy test; format: in vivo, Cyperus difformis; conditions: Flood, applied to paddy water, rating after 13 to 15 d
Text: as §3

pigweed [22] = assay: Test A preemergence; format: in vivo, Amaranthus retroflexus; conditions: 0 to 100 scale (0 no effect, 100 complete control)
Outline: as §1

crabgrass, large [23] = assay: Test A postemergence; format: in vivo, Digitaria sanguinalis; conditions: 0 to 100 scale (0 no effect, 100 complete control), approx. 10 d
Outline: as §1

sedge, umbrella [24] = assay: Test B flooded paddy test; format: in vivo, Cyperus difformis; conditions: 250 g ai/ha, applied to paddy water at 2-leaf stage, visual rating after 13 to 15 d, scale 0 (no effect) to 100 (complete control)
Outline: as §2

CCCc1nc(-c2ccc(F)c(F)c2)nn1Cc1ccnc(C(F)(F)F)c1 [Compound 23]
Plant response rating, Crabgrass, Large (crabgrass, large [1]; 125 g ai/ha): 100 | Plant response rating, Crabgrass, Large (crabgrass, large [1]; 500 g ai/ha, approx. 10 d): 100 | Plant response rating, Morningglory (morningglory [2]; 125 g ai/ha): 50 | Plant response rating, Morningglory (morningglory [2]; 500 g ai/ha): 90 | Plant response rating, Ducksalad, Flood (ducksalad [3]): 90 | Plant response rating, Corn (corn [4]; 125 g ai/ha): 20 | Plant response rating, Corn (corn [4]; 500 g ai/ha, approx. 10 d): 30 | Plant response rating, Barnyardgrass (barnyardgrass [5]; 125 g ai/ha): 50 | Plant response rating, Barnyardgrass (barnyardgrass [5]; 500 g ai/ha, approx. 10 d): 100 | Barnyardgrass plant response rating (0 to 100) (barnyardgrass [6]; 31 g ai/ha): 0 | Barnyardgrass plant response rating (0 to 100) (barnyardgrass [6]; 62 g ai/ha): 10 | Barnyardgrass plant response rating (0 to 100) (barnyardgrass [6]; 125 g ai/ha): 15 | Barnyardgrass plant response rating (0 to 100) (barnyardgrass [6]; 250 g ai/ha): 20 | Plant response rating, Velvetleaf (velvetleaf [7]; 125 g ai/ha): 30 | Plant response rating, Velvetleaf (velvetleaf [7]; 500 g ai/ha, approx. 10 d): 80 | Plant response rating, Corn (corn [8]; 125 g ai/ha): 30 | Plant response rating, Corn (corn [8]; 500 g ai/ha): 60 | Plant response rating, Rice, Flood (rice [9]): 25 | Rice plant response rating (0 to 100) (rice [10]; 31 g ai/ha): 0 | Rice plant response rating (0 to 100) (rice [10]; 62 g ai/ha): 0 | Rice plant response rating (0 to 100) (rice [10]; 125 g ai/ha): 0 | Rice plant response rating (0 to 100) (rice [10]; 250 g ai/ha): 0 | Plant response rating, Pigweed (pigweed [11]; 125 g ai/ha): 100 | Plant response rating, Pigweed (pigweed [11]; 500 g ai/ha): 100 | Plant response rating, Morningglory (morningglory [12]; 125 g ai/ha): 50 | Plant response rating, Morningglory (morningglory [12]; 500 g ai/ha, approx. 10 d): 80 | Plant response rating, Foxtail, Giant (foxtail, giant [13]; 125 g ai/ha): 70 | Plant response rating, Foxtail, Giant (foxtail, giant [13]; 500 g ai/ha): 90 | Plant response rating, Barnyardgrass (barnyardgrass [14]; 125 g ai/ha): 50 | Plant response rating, Barnyardgrass (barnyardgrass [14]; 500 g ai/ha): 70 | Plant response rating, Barnyardgrass, Flood (barnyardgrass [15]): 90 | Plant response rating, Wheat (wheat [16]; 125 g ai/ha): 20 | Plant response rating, Wheat (wheat [16]; 500 g ai/ha, approx. 10 d): 40 | Ducksalad plant response rating (0 to 100) (ducksalad [17]; 31 g ai/ha): 30 | Ducksalad plant response rating (0 to 100) (ducksalad [17]; 62 g ai/ha): 45 | Ducksalad plant response rating (0 to 100) (ducksalad [17]; 125 g ai/ha): 75 | Ducksalad plant response rating (0 to 100) (ducksalad [17]; 250 g ai/ha): 80 | Plant response rating, Velvetleaf (velvetleaf [18]; 125 g ai/ha): 70 | Plant response rating, Velvetleaf (velvetleaf [18]; 500 g ai/ha): 100 | Plant response rating, Wheat (wheat [19]; 125 g ai/ha): 30 | Plant response rating, Wheat (wheat [19]; 500 g ai/ha): 50 | Plant response rating, Foxtail, Giant (foxtail, giant [20]; 125 g ai/ha): 100 | Plant response rating, Foxtail, Giant (foxtail, giant [20]; 500 g ai/ha, approx. 10 d): 100 | Sedge, Umbrella plant response rating (0 to 100) (sedge, umbrella [21]; 31 g ai/ha): 80 | Sedge, Umbrella plant response rating (0 to 100) (sedge, umbrella [21]; 62 g ai/ha): 85 | Sedge, Umbrella plant response rating (0 to 100) (sedge, umbrella [21]; 125 g ai/ha): 90 | Sedge, Umbrella plant response rating (0 to 100) (sedge, umbrella [21]; 250 g ai/ha): 95 | Plant response rating, Pigweed (pigweed [22]; 125 g ai/ha): 100 | Plant response rating, Pigweed (pigweed [22]; 500 g ai/ha, approx. 10 d): 100 | Plant response rating, Crabgrass, Large (crabgrass, large [23]; 125 g ai/ha): 70 | Plant response rating, Crabgrass, Large (crabgrass, large [23]; 500 g ai/ha): 90 | Plant response rating, Sedge, Umbrella, Flood (sedge, umbrella [24]): 95
